Experimental data as given in patent US7875727B2, “Benzimidazole vascular damaging agents” (Angiogene Pharmaceuticals Ltd., priority 1999, dated 2011).

System: vasculature
Experiment: not given
Settings: administered at the MTD; cited from earlier work

Compound | vascular-damaging activity
CC(=O)O[C@@]12CO[C@@H]1C[C@H](O)[C@@]1(C)C(=O)[C@H](O)C3=C(C)[C@@H](OC(=O)[C@H](O)[C@@H](NC(=O)OC(C)(C)C)c4ccccc4)C[C@@](O)([C@@H](OC(=O)c4ccccc4)[C@H]21)C3(C)C [docetaxel] | no vascular-damaging activity

System: tumour vasculature in CaNT tumour-bearing mice
Experiment: Activity against tumour vasculature measured by fluorescent dye (Hoechst 33342 functional vascular volume)
Format: in vivo
Settings: 50 mg/kg i.p., 24 h after drug treatment, compared to control
Excerpt: Activity Against Tumour Vasculature Measured by Fluorescent Dye.
One minute later, animals were killed and tumours excised and frozen; 10 μm sections were cut at 3 different levels and observed under UV illumination using an Olympus microscope equipped with epifluorescence. […] All estimates were based on counting a minimum of 100 fields from sections cut at the 3 different levels. Results are expressed as percentage reduction in vascular volume compared to control.

Compound | % Reduction in vascular volume [%]
COC(=O)Nc1nc2cc(Oc3cccc(O)c3)ccc2[nH]1 [Example 21, Methyl [5(6)-(3-hydroxyphenoxy)-1H-benzimxdazol-2yl]carbamate] | 74
COC(=O)Nc1nc2cc(C(=NO)c3ccc(O)cc3)ccc2[nH]1 [Example 15, Methyl [5(6)-(4-hydroxy-@-hydroxyiminobenzyl)-1H-benzimidazol-2yl]carbamate] | 61
COC(=O)Nc1nc2cc(Sc3ccc(N)cc3)ccc2[nH]1 [Example 4, Methyl [5(6)-(4-aminophenylthio)-1H-benzimidazol-2yl]carbamate] | 53
COC(=O)Nc1nc2cc(Oc3ccc(NC(C)=O)cc3)ccc2[nH]1 [Example 16, Methyl [5(6)-(4-(acetylamino)phenoxy)-1H-benzimidazol-2yl]carbamate] | 56
COC(=O)Nc1nc2cc(Oc3ccc(O)cc3)ccc2[nH]1 [Example 19, Methyl [5(6)-(4-hydroxyphenoxy)-1H-benzimidazol-2yl]carbamate] | 88
COC(=O)Nc1nc2cc(Oc3ccccc3O)ccc2[nH]1 [Example 20, Methyl [5(6)-(2-hydroxyphenoxy)-1H-benzimidazol-2yl]carbamate] | 69
COC(=O)Nc1nc2cc(Oc3ccc(N)cc3)ccc2[nH]1 [Example 17, Methyl [5(6)-(4-aminophenoxy)-1H-benzimidazol-2yl]carbamate] | 62
COC(=O)Nc1nc2cc(Sc3ccc(NC(=O)[C@H](C)N)cc3)ccc2[nH]1 [Example 5, Methyl [5(6)-(4-alanylaminophenylthio)-IH-benzimidazol-2yl]carbamate] | 99
COC(=O)Nc1nc2cc(Sc3ccc(OP(=O)(O)O)cc3)ccc2[nH]1 [Example 3, Methyl [5(6)-(4-phosphonooxyphenylthio)-IH-benzimidazol-2yl]carbamate] | 22
COC(=O)Nc1nc2cc(Sc3ccc(O)cc3)ccc2[nH]1 [Example 12, Methyl [5(6)-(4-hydroxyphenylthio)-1H-benzimidazol-2yl]carbamate] | 51
COC(=O)Nc1nc2cc(Oc3ccc(OP(=O)(O)O)cc3)ccc2[nH]1 [Example 14, Methyl [5(6)-(4-phosphonooxyphenoxy)-1H-benzimidazol-2yl]carbamate] | 39
COC(=O)Nc1nc2cc(Oc3cccc(N)c3)ccc2[nH]1 [Example 18, Methyl [5(6)-(3-aminophenoxy)-1H-benzimidazol-2yl]carbamate] | 47

Same assay, conditions: 100 mg/kg i.p., 6 h after drug treatment, compared to control

Compound | % Reduction in vascular volume [%]
CCCOc1ccc2[nH]c(NC(=O)OC)nc2c1 [Oxibendazole, reference compound] | 43

Same assay, conditions: 100 mg/kg i.p., 24 h after drug treatment, compared to control

Compound | % Reduction in vascular volume [%]
COC(=O)Nc1nc2cc(C(=O)c3cccs3)ccc2[nH]1 [Nocodazole, reference compound] | 23

Same assay, conditions: 500 mg/kg i.p., 6 h after drug treatment, compared to control

Compound | % Reduction in vascular volume [%]
COC(=O)Nc1nc2cc(C(=O)c3ccc(O)cc3)ccc2[nH]1 [Example 1, Methyl [5(6)-(4-hydroxybenzoyl)-IH-benzimidazol-2vl]carbamate] | 81
CCCSc1ccc2[nH]c(NC(=O)OC)nc2c1 [Albendazole, reference compound] | 51
COC(=O)Nc1nc2cc(C(=O)c3ccc(OP(=O)(O)O)cc3)ccc2[nH]1 [Example 2, Methyl [5(6)-(4-phosphonooxybenzoyl)-1H-benzimidazol-2yl]carbamate] | 80
COC(=O)Nc1nc2cc(C(=O)c3ccccc3)ccc2[nH]1 [Mebendazole, reference compound] | 56
COC(=O)Nc1nc2cc(Sc3ccccc3)ccc2[nH]1 [Fenbendazole, reference compound] | 44
